From patent US20230357292A1, “MULTI-COORDINATE GOLD-PHOSPHINE COMPOUNDS AND METHOD OF USE” (University of Kentucky Research Foundation, priority 2020, published 2023) come the findings set out here.

What is called IC50 is the concentration that gives 50% inhibition. The low end stands for higher potency, the high end for lower potency.

In data set [1] the test system is MDA-MB-231 cells. As to conditions: TMRE or JC-1 assay, short exposure periods.
Method: MDA-MB-231 cells were plated at a density of 5×10^5 cells/plate in a 6 well plate and allowed to adhere overnight at 37° C. […] The cells were incubated (37° C., 5% CO2) for 1 h at this concentration. Carbonyl cyanide 3-chlorophenylhydrazone (CCCP) was prepared as a stock in DMSO and added at a final concentration of 100 μM, and the cells were treated for 1 h. It was used as a positive control. After the indicated treatment time, a working solution of the JC-1 dye (Cayman Chemicals, Cat. #15003) was prepared by adding 100 μL of dye into 900 μL of DMEM. Note: the working solution of JC-1 should always be prepared fresh and not stored for long-term use. Then, 100 μL/mL of working solution of the JC-1 dye was added to the cells and incubated at 37° C. for 20 minutes. The cells were harvested and resuspended in 2 mL PBS. The cells were analyzed on a flow cytometer with 488 nm excitation and appropriate emission filters. Gated cells, excluded debris and the CCCP-treated sample was used to performed standard compensation.
Data set [2] deals with MDA-MB-231 cells. Description: Western blotting of apoptotic markers and AMPK. As to conditions: 1 μM, indicated times. For orientation: In western blotting, separated proteins are transferred to a membrane and probed.
Method: Furthermore, to determine if AuPhos-89 induces apoptosis through the caspase-mediated apoptotic pathway, western blotting was performed to assess the induction of caspases and cleaved PARP (FIG. 7C). […] Global changes in proteins were investigated using quantitative proteomics after 12 h of exposing MDA-MB-231 cells to AuPhos-89 at 1 μM. In this tandem mass tag (TMT)-based quantification, protein was extracted from cryo-preserved cell pellets and following tryptic digestion, TMT-labeling was performed. After fractionation, tandem LC-MS/MS was conducted and database search against HUMAN protein database was carried out. Proteins of relative quantification were divided into two categories. A quantitative ratio over 1.5 was considered upregulation while a quantitative ratio less than 1/1.5 was considered as downregulation.
Data set [3] concerns MDA-MB-231 cells. The conditions noted are these: 1 μM for 15 h, FACS. The method, then:
MDA-MB-231 cells were seeded at a density of 5×10^5 cells/well in a 6-well clear bottom plate with a final media volume of 2 mL. The cells were allowed to adhere overnight at 37° C. A stock of AuPhos-89 was prepared fresh in DMSO/DMEM (% v/v=20:80) and added to the desired well at a concentration of 1 μM with a final volume of 2.5 mL and incubated for 15 h at 37° C. A stock of H2O2 was prepared in PBS and the cells treated at a final concentration of 2 mM for 3 hours and used as positive control. When ready for analysis, medium was removed and the wells washed with 5 mL of PBS. The cells were trypsinized (1 mL), 5 mL of DMEM were added to each well, and total volume collected and centrifuged to pellet the cells. The cells were resuspended in 2 mL of fresh media, counted, and reconstituted to a concentration of 1×10^5 cells/mL. The cells were centrifuged again, and the pellet suspended in 500 μL of Annexin binding buffer. To each sample was added 5 μl of Annexin V-FITC and 5 μl PI and incubated in the dark at room temperature for 5 minutes. The samples were then subjected to FACS analysis.

The conditions of data set [4]: equimolar glutathione, aqueous solution, 24 h.
Method: All spectra were recorded using an Agilent Technologies 1100 series HPLC instrument and an Agilent Phase Eclipse Plus C18 column (4.6 mm×100 mm; 3.5 μm particle size). AuPhos-89 and glutathione were prepared as 1 mM stock in DMSO and water, respectively. Equimolar amounts were mixed and the solutions were measured at 0, 1, 3, and 24 h by HPLC. The parameters used in the HPLC were as follows: flow rate, 1 mL/min; λ=280 nm; eluent A=H2O with 0.1% TFA; Eluent B═CH3CN with 0.05% HCOOH; Solvent gradient: 0 min (100:0 H2O:CH3CN), 10 min (0:100 H2O:CH3CN), 15 min (100:0 H2O:CH3CN).
For data set [5] the following is noted: 10 mM in DMSO-d6, 24 h. The method, then: Stock solutions comprised of a 1 mL, 20 mM solution of AuPhos-89 in DMSO-d6. The solution of L-GSH (20 mM) was sonicated for 5 minutes to dissolve the reagent in DMSO-d6. 1 mL of each solution were mixed in a 1:1 ratio to produce a final concentration of 10 mM in DMSO-d6. The solution was then analyzed by 1H NMR spectroscopy. The solution was further analyzed at different time intervals, t=1 h, 6 h, 12 h, and 24 h.

Data set [6] has as its system MDA-MB-231 cells. The conditions noted are these: 1 μM; 24 h, 48 h, 72 h.
Method: MDA-MB-231 cells were seeded at a density of 5×10^5 cells/well in a 6-well clear bottom plate with a final media volume of 2 mL and allowed to adhere overnight 37° C. […] After the desired treatment period, the medium was removed and added to a 15 mL Falcon tube. The wells were washed with 5 mL of PBS and added to the Falcon tube. The cells were trypsinized (1 mL) and added 5 mL of fresh DMEM. All media were combined, and the tube centrifuged at 2000 rpm for 5 minutes to collect the pellet. The medium was decanted, and the pellet suspended in 1 mL of PBS, which was then transferred to a 1 mL Eppendorf tube, centrifuged at 2000 rpm for 5 minutes and suspended in 70% EtOH/PBS solution. These solutions were stored at 4° C. until ready for analysis. […] The cells were washed twice with PBS (1 mL) and suspended in a 50 μL of RNase solution (100 μg/mL) and 200 μL of a 50 μg/mL PI solution. The solutions were then filtered through a 5 mL polystyrene round-bottom tube fit with a cell-strainer cap. The samples were then analyzed with FACS.
For data set [7] the following is noted: 37° C. The method, then: To determine the stability of gold compounds under physiological conditions in the presence of biological nucleophiles, UV absorbance measurements were conducted over a 24 h time period. Briefly, AuPhos was dissolved in media from a DMSO stock. To this solution was added 10 mM L-glutathione.
To study the stability of the gold(III) compounds in solution, the UV-vis profile of the representative compounds was evaluated in biologically relevant media at physiological temperature of 37° C. Given the common limitation of gold compounds to promiscuously bind thiol containing biomolecules, the interaction of gold(III) complex AuPhos89 was investigated with physiologically relevant concentration of L-glutathione (10 mM) in Dubelcco modified essential medium (DMEM).

For data set [8] the following is noted: 10 mg kg−1 IV, 1 h and 24 h; heart, lung, liver, spleen, kidney, tumor.
Method: With four mice inoculated with 4T1 (1,000,000 cells), after 20 days, AuPhos-89 was inserted into mice by IV administration (0.1 mL, 10 mg/kg). Each tissue was obtained by sacrificing the mice (n=2) 1 and 24 hours later. […] The solution turned yellow and diluted as needed to measure the gold content using a Graphite Furnace Atomic Absorption Spectrometer. Before measuring all samples, the standard solution curves were measured.
After respective time points of 1 h and 24 h, mice were euthanized. Organs including heart, lung, liver, spleen, kidney, and tumor were excised and the gold concentration was analyzed by GF-AAS.
Data set [9] relates to isolated mitochondria from the liver of C57BL/6J mice. As to conditions: 1 μM, in the presence of oligomycin; dose-dependent up to about 10 μM. Here is the method: (§1) Analysis. The initial step of Seahorse XF96 analysis included optimization of the cell density. In this stage, isolated mitochondria (30 μg) or MDA-MB-231 cells were seeded at a range of densities from 2000 cells/well to 100,000 cells/well, followed by optimization of the FCCP injection concentration used (0.6 μM of 1.2 μM). […] All Seahorse XF96 experiments with MDA-MB-231 were performed under these conditions. The cells were seeded the night prior to the experiment with a final volume of 100 μL and incubated overnight at 37° C. AuPhos-89 was prepared as a stock in DMSO/DMEM (% v/v=20:80) and diluted to a working concentration of 100 μM with Seahorse XF96 assay buffer and then subsequently serial diluted by 10× to achieve multiple concentrations. The assay was performed using a pneumatic injection method of AuPhos-89, with the final injection concentrations of 0.01, 0.1, 1, and 10 μM. This was followed by injection of oligomycin (1.5 μM), FCCP (0.6 μM) and rotenone/antimycin A (0.5 μM).

In data set [10] the test system is MDA-MB-231 cells. As to conditions: live MDA-MB-231 cells, mito-stress test. The method, then:
as §1

In the next data set the test system is MDA-MB-231 (breast). Description: Cell viability, crystal violet assay, MDA-MB-231. The data set is classed as cell-based, human. The source says:
The plates were washed with water and dried again.

Method for 4T1 tumor: Female, 5 week-old BALB/c mice were purchased from Charles River Laboratories (Wilmington, MA). All mice were quarantined for 1 week prior to use and kept in micro-isolator cages (four mice per cage) in a temperature- and humidity-controlled environment as per the Division of Laboratory Animal Research (DLAR) of University of Kentucky. All mice were maintained in a pathogen-free environment under the care of DLAR of University of Kentucky. The study was performed in compliance with the NIH guidelines (NIH Publication No. 85-23 Rev. 1985) for the care and use of laboratory animals and all experimental procedures were monitored and approved by the Institutional Animal Care and Use Committee (IACUC) of University of Kentucky (USA).
The control group was injected with a PBS solution containing 1% DMSO and 1% Kolliphor.
A separate group of mice was administered equal volumes of vehicle control at the same time points and via the analogous route.

With `[Cl-].[Cl][Au-]1([c]2ccccc2-c2ccccn2)[P+](c2ccccc2)(c2ccccc2)c2ccccc2[P+]1(c1ccccc1)c1ccccc1` [AuPhos-89, (2-phenylpyridine)[1,2-Bis(diphenylphosphino)benzene]gold(III) Dichloride], the “mitochondrial membrane potential (MMP)” value in the data set on MDA-MB-231 cells [1] is on record as “depolarization of the MMP”. In addition, the “induction of caspases, cleaved PARP and AMPK” value with MDA-MB-231 cells [2] was “activate cleaved caspases, PARP and the cellular energy regulator, AMPK”. Further, the “population of cells in early to late apoptosis” value in the data set on MDA-MB-231 cells [3] is listed as roughly 40%. For the same compound, the “stability with L-GSH, HPLC chromatogram” value in data set [4] is “little change”. Further, in data set [5], the “stability with L-GSH, proton resonances” value is “minimally altered”. Moreover, the cell cycle distribution result with MDA-MB-231 cells [6] is listed as “no significant changes to the cell cycle”. Also, in data set [7] (10 mM L-glutathione in media (DMEM), 24 h), the “stability, UV-vis absorption with L-glutathione” value was “no alteration to the absorption band”. The “stability, UV-vis absorption in RPMI-1640” value in [7] (RPMI-1640, 24 h) is given as “no changes to the absorption spectra”. Moreover, the “tissue biodistribution, Au levels in organs” value in data set [8] is “confirmed the uptake”. In data set [9], the “mitochondrial oxygen consumption rate (OCR)” value is given as “increased oxygen consumption”. Also, in the data set with MDA-MB-231 cells [10], the ATP production entry is given as “diminished ATP production” and the proton leak result is recorded as “acutely induced proton leak”. Also, in the data set on MDA-MB-231 (breast) (MDA-MB-231 (breast), 4,000 cells/well, treated 72 h, mean ± SD (n = 3)), the IC50 turned out to be 450 ± 140 nM. Further, it took 220 nM to reach half-maximal inhibition in the data set with MDA-MB-231 (breast) (cell line not stated at the place (structure-activity relationship studies)) (IC50). Further, the tumor growth rate result with 4T1 tumor (10 mg kg−1 IV, 3 weekly injections, n=5, versus vehicle control) is reported as “decreased significantly”. For the same compound, in the data set with 4T1 tumor (end of the observation period), the body weight entry is “did not exhibit significant change”.
